# Results reported in patent US20240383881A1, “SYNTHETIC COMPOUND OF MYRICETIN AND NOBILETIN, AND PREPARATION METHOD THEREFOR” (The Second People's Hospital of Shenzhen (Shenzhen …, priority 2023, published 2024).
# How the values were obtained:
# mice with hyperuricemia = test: yeast extract feed-induced hyperuricemia model in KM mice; type: in vivo, KunMing (KM) mice; settings: 30 mg/kg intragastric daily for 9 weeks; for serum UA levels vs model group: P<0.001, P<0.001, P<0.01; for serum creatinine level vs model group / serum urea nitrogen level vs model group: P<0.001; for serum urea nitrogen level vs model group: FIG. 2B; for kidney index vs model group: FIG. 3A, P<0.05 (synthetic compound), P<0.001 (nobiletin); for liver index vs model group: FIG. 3B, P<0.001, P<0.05, P<0.01; for renal pathological morphology (HE staining): renal tissue, x200
# Method: Specific pathogen free (SPF) grade KunMing (KM) mice, male, aged 5-6 weeks, weighing 22-25 g, are provided by Medical Experimental Animal Center of Guangdong Province with an animal qualification certificate number: SCXK (Yue) 2022-0002. The mice are raised in plastic cages, with free diet and drinking water. The indoor temperature of the plastic cages is (22±2)° C., and a relative humidity is maintained at 55%±5%. The lights are turned on and turned off for 12 hours, respectively. After quarantine and adaptation for one week, relevant experiments are conducted. The experimental plan is reviewed and approved by the Animal Welfare Ethics Committee of Zhongke Industry Holdings (Shenzhen) Co., Ltd. (application number: 20220082), and the operation and process of animal experiments follow the “Guidelines for the use of experimental animals in teaching” of the Chinese Society of Experimental Animals. Customized dietary feeds: 15% of yeast extract feeds, in compliance with regulations of GB13078 and GB14924.2, are provided by Jiangsu Synergy Pharmaceutical Biotechnology Co., Ltd. Production license: Su Si Zheng (2019) 01008. After 2 weeks of adaptive feeding in the plastic cages, the SPF grade KM mice are randomly divided into five groups: normal group (Control), model group (Model), synthetic compound group (PJW), myricetin group (Myricetin), and nobiletin group (Nobiletin). The dosage of each individual test medicine group is 30 milligrams per kilogram (mg/kg), and the medicines are dissolved in a 0.5% carboxymethyl cellulose sodium solution with a gavage volume of 10 milliliters per kilogram (mL/kg). Except for the normal group fed with basic feed, the other groups are fed with 15% of the yeast extract feeds for modeling. The normal group and the model group are intragastrically administered an equal amount of physiological saline daily, and the other groups are intragastrically administered with the corresponding medicine daily for 9 weeks. At the end of the experiment, that is, at the end of the 9th week of administration, the KM mice are fasted for 12 hours, then the KM mice are anesthetized with the isoflurane to take off the eyeballs from the KM mice for blood collection, followed by placing the collected blood to stand in the room temperature for 1 hour. After the standing, the blood is centrifuged at 3500 revolutions per minute (rpm/min) for 15 minutes to obtain centrifuged solutions, respectively, then serums of the centrifuged solution are separated to detect the levels of the uric acid, the creatinine, the urea nitrogen. The KM mice are sacrificed by dislocation of cervical vertebra after collecting blood, livers and kidneys are dissected from the KM mice and weighed to calculate indexes of the livers and the kidneys, an organ index of the formula is as follows: organ index=organ weight (g)/body mass (g)×100%. Then the livers and the kidneys are quickly packed, one portion of the packed sample is fixed with 4% paraformaldehyde solution for HE staining, and the other portion of the packed sample is stored at −80° C. in a refrigerator for later use. The renal tissues fixed with 4% paraformaldehyde from the kidneys are taken to be dehydrated with ethanol, embedded in paraffin, and sliced. After staining with hematoxylin-eosin, the pathological changes of renal tissues are observed under an upright optical microscope. All data are statistically analyzed using a GraphPad Prism 7.00 software, and the data are presented as a mean value±a standard error (standard deviation±standard error of the mean abbreviated as SD±SEM). Multiple group comparisons are conducted using a one-way Analysis of Variance (ANOVA), and pairwise comparisons between groups are conducted using a Dunnett's test. P<0.05 indicates a statistically significant difference.
# [1] = biological target: T1, organic anion transporter 4 (OAT4) (Homo sapiens, UniProt Q9NSA0); settings: OAT4 overexpressed monoclonal cell line; Wang Ze et al. 2019; read-out: half-maximal inhibitory concentration (IC50) on OAT4; cited from earlier work
# T1 sequence (Q9NSA0 1-550): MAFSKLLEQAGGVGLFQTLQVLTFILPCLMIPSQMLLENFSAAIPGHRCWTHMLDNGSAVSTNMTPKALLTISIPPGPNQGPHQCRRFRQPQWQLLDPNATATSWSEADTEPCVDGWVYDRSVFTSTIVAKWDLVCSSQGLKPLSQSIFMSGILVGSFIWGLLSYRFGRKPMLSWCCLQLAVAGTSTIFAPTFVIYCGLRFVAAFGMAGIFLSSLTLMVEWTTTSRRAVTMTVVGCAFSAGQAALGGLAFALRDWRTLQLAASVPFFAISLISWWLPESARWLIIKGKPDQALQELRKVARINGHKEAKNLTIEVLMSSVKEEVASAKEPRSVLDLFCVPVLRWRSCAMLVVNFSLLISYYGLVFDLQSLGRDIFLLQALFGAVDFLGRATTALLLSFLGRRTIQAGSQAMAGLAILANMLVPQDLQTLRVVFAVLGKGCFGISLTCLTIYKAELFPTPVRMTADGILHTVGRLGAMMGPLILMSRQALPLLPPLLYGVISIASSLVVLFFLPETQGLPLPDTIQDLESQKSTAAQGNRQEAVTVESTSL
# [2] = patients with hyperuricemia; Wang Yong et al. 2010; cited from earlier work
Compound,serum UA levels vs model group (mice with hyperuricemia; FIG. 1),serum creatinine level vs model group (mice with hyperuricemia; FIG. 2A),serum urea nitrogen level vs model group (mice with hyperuricemia),kidney index vs model group (mice with hyperuricemia),liver index vs model group (mice with hyperuricemia),renal pathological morphology (HE staining) (mice with hyperuricemia; FIG. 4),IC50 [1],serum UA effect compared with monomer groups (mice with hyperuricemia; FIG. 1),effect on creatinine compared with monomer medicines (mice with hyperuricemia; FIG. 2A),organ index effect compared with monomer groups (mice with hyperuricemia; FIGS. 3A-3B),"improvement of renal pathological morphology compared with monomer medicines (mice with hyperuricemia; HE staining, FIG. 4)",serum uric acid (UA) levels in patients [2]
COc1ccc(-c2cc(=O)c3c(OC)c(OC)c(OC)c(OC)c3o2)cc1OC [nobiletin],significantly reduced,significantly reduced,significantly reduced,significantly reduced,significantly reduced,improve renal injury,556 nM,,,,,
COc1cc(OC)c2c(=O)c(OCCCC(=O)Oc3c(-c4ccc(OC)c(OC)c4)oc4c(OC)c(OC)c(OC)c(OC)c4c3=O)c(-c3cc(OC)c(OC)c(OC)c3)oc2c1 [synthetic compound],significantly reduced,significantly reduced,significantly reduced,significantly reduced,significantly reduced,improve renal injury,,better than that of each monomer group,better than that of monomer medicines,better than that of each monomer group,better than that of monomer medicines,
O=c1c(O)c(-c2cc(O)c(O)c(O)c2)oc2cc(O)cc(O)c12 [myricetin],significantly reduced,significantly reduced,significantly reduced,,significantly reduced,improve renal injury,,,,,,significantly reduce
